From PubChem BioAssay (NCI)
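GI50 is the concentration that inhibits growth by half. At the TGI there is no net growth.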

How the values were obtained:
Assay in all cases: NCI anticancer screen, dose series, 384-well format
[1] = tested on: SF-268 CNS
[2] = tested on: HOP-62 NSCLC
[3] = tested on: UACC-257 melanoma
[4] = tested on: OVCAR-5 ovarian
[5] = tested on: K-562 leukemia
[6] = tested on: T-47D breast
[7] = tested on: OVCAR-3 ovarian
[8] = tested on: SNB-19 CNS
[9] = tested on: SR leukemia
[10] = tested on: MDA-MB-435 melanoma
[11] = tested on: MOLT-4 leukemia
[12] = tested on: OVCAR-4 ovarian
[13] = tested on: SN12C renal
[14] = tested on: SF-539 CNS
[15] = tested on: BT-549 breast
[16] = tested on: UACC-62 melanoma
[17] = tested on: MALME-3M melanoma
[18] = tested on: SK-OV-3 ovarian
[19] = tested on: NCI-H23 lung
[20] = tested on: RPMI-8226 leukemia
[21] = tested on: NCI/ADR-RES ovarian
[22] = tested on: HOP-92 NSCLC
[23] = tested on: IGROV1 ovarian
[24] = tested on: HCT-15 colon
[25] = tested on: U251 glioblastoma
[26] = tested on: NCI-H226 lung
[27] = tested on: OVCAR-8 ovarian
[28] = tested on: SNB-75 CNS
[29] = tested on: M14 melanoma
[30] = tested on: EKVX NSCLC
[31] = tested on: A549 NSCLC
[32] = tested on: CAKI-1 renal
[33] = tested on: RXF 393 renal
[34] = tested on: MDA-MB-231 breast
[35] = tested on: UO-31 renal
[36] = tested on: COLO 205 colon
[37] = tested on: DU-145 prostate
[38] = tested on: KM12 colon
[39] = tested on: NCI-H322M lung
[40] = tested on: HCC-2998 colon
[41] = tested on: HT29 colon
[42] = tested on: CCRF-CEM leukemia
[43] = tested on: NCI-H460 NSCLC
[44] = tested on: SF-295 CNS
[45] = tested on: LOX IMVI melanoma
[46] = tested on: 786-0 renal
[47] = tested on: A498 renal
[48] = tested on: SW-620 colon
[49] = tested on: PC-3 prostate
[50] = tested on: MDA-MB-468 breast
[51] = tested on: MCF7 breast
[52] = tested on: ACHN renal
[53] = tested on: SK-MEL-28 melanoma
[54] = tested on: TK-10 renal
[55] = tested on: NCI-H522 lung
[56] = tested on: HL-60(TB) leukemia
[57] = tested on: HS 578T breast

CCNC(=O)c1noc(-c2cc(C(C)C)c(O)cc2O)c1-c1ccc(CN2CCOCC2)cc1
GI50 [1]: < 10 nM
TGI [1]: 10700 nM
GI50 [2]: < 10 nM
TGI [2]: 13.1 nM
GI50 [3]: < 10 nM
TGI [3]: 420 nM
GI50 [4]: 16.9 nM
TGI [4]: 76.1 nM
GI50 [5]: < 10 nM
TGI [5]: < 10 nM
GI50 [6]: < 10 nM
TGI [6]: 44.8 nM
GI50 [7]: < 10 nM
TGI [7]: < 10 nM
GI50 [8]: 13.1 nM
TGI [8]: 63.7 nM
GI50 [9]: < 10 nM
TGI [9]: < 10 nM
GI50 [10]: < 10 nM
TGI [10]: 14900 nM
GI50 [11]: < 10 nM
TGI [11]: < 10 nM
GI50 [12]: < 10 nM
TGI [12]: < 10 nM
GI50 [13]: < 10 nM
TGI [13]: 28 nM
GI50 [14]: < 10 nM
TGI [14]: < 10 nM
GI50 [15]: < 10 nM
TGI [15]: < 10 nM
GI50 [16]: < 10 nM
TGI [16]: < 10 nM
GI50 [17]: < 10 nM
TGI [17]: < 10 nM
GI50 [18]: < 10 nM
TGI [18]: 11000 nM
GI50 [19]: < 10 nM
TGI [19]: < 10 nM
GI50 [20]: < 10 nM
TGI [20]: < 10 nM
GI50 [21]: 66.9 nM
TGI [21]: 269 nM
GI50 [22]: < 10 nM
TGI [22]: < 10 nM
GI50 [23]: 12.1 nM
TGI [23]: 37 nM
GI50 [24]: < 10 nM
TGI [24]: 10400 nM
GI50 [25]: < 10 nM
TGI [25]: 29.7 nM
GI50 [26]: < 10 nM
TGI [26]: 11700 nM
GI50 [27]: < 10 nM
TGI [27]: < 10 nM
GI50 [28]: < 10 nM
TGI [28]: < 10 nM
GI50 [29]: < 10 nM
TGI [29]: 11200 nM
GI50 [30]: < 10 nM
TGI [30]: 1030 nM
GI50 [31]: < 10 nM
TGI [31]: 10700 nM
GI50 [32]: < 10 nM
TGI [32]: 12600 nM
GI50 [33]: < 10 nM
TGI [33]: < 10 nM
GI50 [34]: < 10 nM
TGI [34]: < 10 nM
GI50 [35]: 49.4 nM
TGI [35]: > 100000 nM
GI50 [36]: 20.7 nM
TGI [36]: 157 nM
GI50 [37]: < 10 nM
TGI [37]: < 10 nM
GI50 [38]: < 10 nM
TGI [38]: 13 nM
GI50 [39]: < 10 nM
TGI [39]: 12200 nM
GI50 [40]: < 10 nM
TGI [40]: < 10 nM
GI50 [41]: 85.9 nM
TGI [41]: 10400 nM
GI50 [42]: < 10 nM
TGI [42]: < 10 nM
GI50 [43]: < 10 nM
TGI [43]: < 10 nM
GI50 [44]: 24.7 nM
TGI [44]: 115 nM
GI50 [45]: < 10 nM
TGI [45]: < 10 nM
GI50 [46]: < 10 nM
TGI [46]: 30.4 nM
GI50 [47]: < 10 nM
TGI [47]: 3880 nM
GI50 [48]: < 10 nM
TGI [48]: < 10 nM
GI50 [49]: < 10 nM
TGI [49]: 29.6 nM
GI50 [50]: < 10 nM
TGI [50]: < 10 nM
GI50 [51]: < 10 nM
TGI [51]: 11.2 nM
GI50 [52]: < 10 nM
TGI [52]: 15500 nM
GI50 [53]: < 10 nM
TGI [53]: 42.8 nM
GI50 [54]: 24.4 nM
TGI [54]: 81 nM
GI50 [55]: < 10 nM
TGI [55]: 23.6 nM
GI50 [56]: < 10 nM
TGI [56]: < 10 nM
GI50 [57]: < 10 nM
TGI [57]: < 10 nM
